Measurements as given in patent US7807841B2, “Spiro-containing compounds and compositions as modulators of steroid hormone nuclear receptors” (IRM LLC, priority 2005, dated 2010).

Each compound was assayed against T1, Mineralocorticoid Receptor (MR) (Homo sapiens, UniProt P08235) (assay: Functional assay of mineralocorticoid receptor antagonism (Gal4-MR mammalian two hybrid luciferase reporter, 293T cells)). Conditions: antagonism of aldosterone (0.4 nM)-induced MR activity.
T1 construct: expressed in transfected cells; host or cells: 293T cells (ATCC)
T1 sequence (P08235 672-984): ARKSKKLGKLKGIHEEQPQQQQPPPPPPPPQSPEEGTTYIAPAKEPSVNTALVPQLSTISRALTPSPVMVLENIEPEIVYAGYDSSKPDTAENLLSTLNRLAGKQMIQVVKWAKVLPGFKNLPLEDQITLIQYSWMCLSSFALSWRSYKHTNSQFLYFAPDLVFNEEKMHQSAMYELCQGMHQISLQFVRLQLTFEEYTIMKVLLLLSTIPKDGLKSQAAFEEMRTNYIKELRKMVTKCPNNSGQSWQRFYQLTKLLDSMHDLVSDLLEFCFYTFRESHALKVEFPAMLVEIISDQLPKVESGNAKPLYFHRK
Format: cell-based
Description: The MR antagonist activity of the compounds is determined in a mammalian two hybrid reporter system. The N-terminus of MR (MR-NT, sequence coding amino acid 1-597) is fused to the activation domain of the VP16 gene. The ligand binding domain of MR (MR-LBD, sequence encoding amino acid 672-984) is fused to the DNA binding domain of the yeast Gal4 gene. The MR gene is cloned from a human kidney cDNA library with PCR.
The assay is performed in 384 well plates. Briefly, 293T cells (ATCC) are transfected with expression vectors for Gal-4-MR-LBD and VP16-MR NT, and a luciferase reporter vector containing Gal4 binding sequence (pG5-Luc). Cells are plated in 384 well plates immediately after transfection (approximately 3×10^4 cells/well in 50 μl medium). The medium is supplemented with 3% charcoal-dextran treated fetal bovine serum (Hyclone). Twenty four hours after transfection, compounds prepared in DMSO are transferred to the cells. The cells are then stimulated with 0.4 nM final concentration of aldosterone (Acros) and incubated at 37° C. for another 24 hours before the luciferase activity is assayed with 20 μl of Bright-Glo (Promega) using a luminometer (CLIPR). The expression of luciferase is used as an indicator of aldosterone-induced MR trans-activation. Each compound is tested in duplicates with 12-concentration titration. IC50 values (defined as the concentration of test compound required to antagonize 50% of aldosterone-induced MR activity) are determined from the dose-response curve.

Row | SMILES | IC50 [µM]
1 | O=C1CCC2(c3ccn(S(=O)(=O)c4ccccc4)c3)OC3(CN12)c1ccccc1C=Cc1ccccc13 (centres unmarked) [FRS-12] | 0.1 to 1
2 | C1=Cc2ccccc2C2(CN=C(c3ccccc3)O2)c2ccccc21 [OXS-2] | 0.1 to 1
3 | O=C1CCC2(c3ccc(Br)cc3)OC3(CN12)c1ccccc1C=Cc1ccccc13 (centres unmarked) [FRS-7] | < 0.1

Continued, values first:

Row | IC50 [µM] | SMILES
4 | 0.1 to 1 | CC1(C)OC2(CN1C(=O)c1ccccc1)c1ccccc1C=Cc1ccccc12 [SOXS-5]
5 | 0.1 to 1 | COc1ccc(C2=NCC3(O2)c2ccccc2C=Cc2ccccc23)cc1 [OXS-3]
